According to US9637496B2, “Substituted 7-azabicycles and their use as orexin receptor modulators” (priority 2013, dated 2017):
pKi: −log10 of the molar value. Read-outs that look alike come from different tables or passages of the source.

How the values were obtained:
human orexin 1 receptor = human orexin 1 receptor (Homo sapiens (Human), UniProt O43613); experiment: Human orexin 1 receptor radioligand binding (competitive binding, CHO membranes)
rat orexin 1 receptor = rat orexin 1 receptor (Rattus norvegicus (Rat), UniProt P56718); experiment: Rat orexin 1 receptor radioligand binding (competitive binding, HEK293 membranes)
human orexin 2 receptor = human orexin 2 receptor (Homo sapiens (Human), UniProt O43614); experiment: Human orexin 2 receptor radioligand binding ([3H]-EMPA competition, HEK293 membranes)
[1] = human orexin 2 receptor, Table 2, averages from between 2-20 runs, read-out: hOX2 Ki
[2] = human orexin 1 receptor, Table 2, averages from between 2-20 runs, read-out: hOX1 Ki
[3] = rat orexin 1 receptor, Table 2, averages from between 2-20 runs, read-out: rOX1 Ki
[4] = Table 2, further testing, averages from 2-20 runs, read-out: hOX1 Ki
[5] = Table 2, further testing, averages from 2-20 runs, read-out: rOX1 Ki
[6] = Table 2, further testing, averages from 2-20 runs, read-out: hOX2 Ki

Sequence of human orexin 2 receptor (O43614 whole entry): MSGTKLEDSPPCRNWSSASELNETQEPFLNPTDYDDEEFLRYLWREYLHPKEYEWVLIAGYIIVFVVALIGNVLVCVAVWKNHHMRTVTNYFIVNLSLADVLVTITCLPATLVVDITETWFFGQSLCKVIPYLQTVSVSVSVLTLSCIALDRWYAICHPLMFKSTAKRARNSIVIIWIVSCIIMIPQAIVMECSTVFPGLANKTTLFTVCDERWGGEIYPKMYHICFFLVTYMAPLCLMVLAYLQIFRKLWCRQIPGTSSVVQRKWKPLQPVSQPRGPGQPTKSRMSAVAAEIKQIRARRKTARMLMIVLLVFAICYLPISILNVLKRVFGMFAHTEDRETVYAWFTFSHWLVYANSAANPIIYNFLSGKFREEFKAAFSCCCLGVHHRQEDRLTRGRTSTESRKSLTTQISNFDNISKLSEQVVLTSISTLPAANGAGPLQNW
Sequence of human orexin 1 receptor (O43613 whole entry): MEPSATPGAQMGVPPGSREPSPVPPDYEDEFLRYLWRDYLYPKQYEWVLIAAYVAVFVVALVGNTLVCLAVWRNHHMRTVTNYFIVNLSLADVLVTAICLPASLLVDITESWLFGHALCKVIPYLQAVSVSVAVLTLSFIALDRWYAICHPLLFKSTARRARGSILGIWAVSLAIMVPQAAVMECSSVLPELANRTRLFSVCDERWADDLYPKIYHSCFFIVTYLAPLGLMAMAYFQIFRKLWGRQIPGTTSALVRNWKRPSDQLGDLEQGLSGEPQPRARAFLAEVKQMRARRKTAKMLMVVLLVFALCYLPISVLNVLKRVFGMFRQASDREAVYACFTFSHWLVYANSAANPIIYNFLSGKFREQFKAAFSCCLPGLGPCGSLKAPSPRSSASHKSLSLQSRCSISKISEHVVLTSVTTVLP
Sequence of rat orexin 1 receptor (P56718 whole entry): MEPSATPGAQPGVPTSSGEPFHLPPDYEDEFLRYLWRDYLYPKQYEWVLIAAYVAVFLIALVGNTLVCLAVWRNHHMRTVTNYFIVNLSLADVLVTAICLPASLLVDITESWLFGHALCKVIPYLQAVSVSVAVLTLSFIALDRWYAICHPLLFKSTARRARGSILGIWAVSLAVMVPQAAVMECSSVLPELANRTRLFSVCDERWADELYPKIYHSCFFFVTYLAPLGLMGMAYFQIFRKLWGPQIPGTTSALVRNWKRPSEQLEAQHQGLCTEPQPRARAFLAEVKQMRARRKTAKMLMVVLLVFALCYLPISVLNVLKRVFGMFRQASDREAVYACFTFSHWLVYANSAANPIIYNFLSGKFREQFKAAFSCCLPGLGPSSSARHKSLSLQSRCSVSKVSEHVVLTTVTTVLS

Which results are given for `[2H]C1(Nc2cnc(C(F)(F)F)cn2)CC2CCC1N2C(=O)c1cccc(F)c1-c1ncccn1` [Example 395, (3-fluoro-2-(pyrimidin-2-yl)phenyl)((1S,2R,4R)-(2-^2H)-((5-(trifluoromethyl)pyrazin-2-yl)amino)-7-azabicyclo[2.2.1]heptan-7-yl)methanone]?
pKi (human orexin 1 receptor): 7.85; pKi (rat orexin 1 receptor): 7.77; pKi (human orexin 2 receptor): 6.05

How did the pKi (human orexin 1 receptor; read-out: hOX1 Ki) turn out when `O=C(c1ccccc1-c1ncc(F)cn1)N1[C@@H]2CC[C@H]1[C@H](Nc1cnc(C(F)(F)F)cn1)C2` [Example 397, (2-(5-fluoropyrimidin-2-yl)phenyl)((1S,2R,4R)-2-((5-(trifluoromethyl)pyrazin-2-yl)amino)-7-azabicyclo[2.2.1]heptan-7-yl)methanone] was run?
The pKi was 7.62.

And the pKi (rat orexin 1 receptor; read-out: rOX1 Ki)?
The pKi was 7.30.

What about the pKi (human orexin 2 receptor; [1]) of the same molecule?
Its pKi is 6.01.

With `O=C(c1cccc(F)c1-c1ncc(F)cn1)N1[C@@H]2CC[C@H]1[C@H](Nc1cnc(C(F)(F)F)cn1)C2` [Example 398, (3-fluoro-2-(5-fluoropyrimidin-2-yl)phenyl)((1S,2R,4R)-2-((5-(trifluoromethyl)pyrazin-2-yl)amino)-7-azabicyclo[2.2.1]heptan-7-yl)methanone] as the molecule, how does the pKi (human orexin 1 receptor; [2]) read?
Its pKi is 7.09.

And the pKi (rat orexin 1 receptor; [3])?
The pKi was 7.21.

What about the pKi (human orexin 2 receptor; [1]) of the same molecule?
Its pKi is 5.68.

`Cc1cccc(C(=O)N2[C@@H]3CC[C@H]2[C@H](Nc2cnc(C(F)(F)F)cn2)C3)c1-c1ncc(F)cn1` [Example 399, (2-(5-fluoropyrimidin-2-yl)-3-methylphenyl)((1S,2R,4R)-2-((5-(trifluoromethyl)pyrazin-2-yl)amino)-7-azabicyclo[2.2.1]heptan-7-yl)methanone] was tested. Which pKi (human orexin 1 receptor; read-out: hOX1 Ki) did it give?
The pKi was 8.05.

What about the pKi (rat orexin 1 receptor; read-out: rOX1 Ki) of the same molecule?
The pKi was 8.00.

What about the pKi (human orexin 2 receptor; [1]) of the same molecule?
Its pKi is 6.52.

How did the pKi (human orexin 1 receptor; read-out: hOX1 Ki) turn out when `O=C(c1ccccc1-c1ncccn1)N1[C@@H]2CC[C@H]1[C@H](Nc1cnc(C(F)(F)F)cn1)C2` [Example 400, (2-(pyrimidin-2-yl)phenyl)((1S,2R,4R)-2-((5-(trifluoromethyl)pyrazin-2-yl)amino)-7-azabicyclo[2.2.1]heptan-7-yl)methanone] was run?
Its pKi is 7.72.

And the pKi (rat orexin 1 receptor; read-out: rOX1 Ki)?
Its pKi is 7.57.

What about the pKi (human orexin 2 receptor; [1]) of the same molecule?
Its pKi is 6.24.

`Cc1cnc(-n2nccn2)c(C(=O)N2[C@@H]3CC[C@H]2[C@H](Nc2cnc(C(F)(F)F)cn2)C3)c1` [Example 401, (5-methyl-2-(2H-1,2,3-triazol-2-yl)pyridin-3-yl)((1S,2R,4R)-2-((5-(trifluoromethyl)pyrazin-2-yl)amino)-7-azabicyclo[2.2.1]heptan-7-yl)methanone] was tested. Which pKi (human orexin 1 receptor; [2]) did it give?
Its pKi is 6.40.

What about the pKi (rat orexin 1 receptor; [3]) of the same molecule?
The pKi was 6.71.

What about the pKi (human orexin 2 receptor; [1]) of the same molecule?
The pKi was under 5.00.

`Cc1ccc(-c2ncccn2)c(C(=O)N2[C@@H]3CC[C@H]2[C@H](Nc2cnc(C(F)(F)F)cn2)C3)n1` [Example 403, (6-methyl-3-(pyrimidin-2-yl)pyridin-2-yl)((1S,2R,4R)-2-((5-(trifluoromethyl)pyrazin-2-yl)amino)-7-azabicyclo[2.2.1]heptan-7-yl)methanone] was tested. Which pKi (human orexin 1 receptor; read-out: hOX1 Ki) did it give?
The pKi was 7.17.

And the pKi (rat orexin 1 receptor; read-out: rOX1 Ki)?
Its pKi is 7.06.

What about the pKi (human orexin 2 receptor; [1]) of the same molecule?
The pKi was 6.37.

With `Cc1cnc(C(=O)N2[C@@H]3CC[C@H]2[C@H](Nc2cnc(C(F)(F)F)cn2)C3)c(-c2ncccn2)c1` [Example 405, (5-methyl-3-(pyrimidin-2-yl)pyridin-2-yl)((1S,2R,4R)-2-((5-(trifluoromethyl)pyrazin-2-yl)amino)-7-azabicyclo[2.2.1]heptan-7-yl)methanone] as the molecule, how does the pKi (human orexin 1 receptor; read-out: hOX1 Ki) read?
The pKi was 7.23.

And the pKi (rat orexin 1 receptor; read-out: rOX1 Ki)?
Its pKi is 7.28.

And the pKi (human orexin 2 receptor; read-out: hOX2 Ki)?
Its pKi is under 5.00.

How did the pKi (human orexin 1 receptor; [2]) turn out when `O=C(c1ncccc1-c1ncccn1)N1[C@@H]2CC[C@H]1[C@H](Nc1cnc(C(F)(F)F)cn1)C2` [Example 406, (3-(pyrimidin-2-yl)pyridin-2-yl)((1S,2R,4R)-2-((5-(trifluoromethyl)pyrazin-2-yl)amino)-7-azabicyclo[2.2.1]heptan-7-yl)methanone] was run?
The pKi was 7.36.

And the pKi (rat orexin 1 receptor; [3])?
Its pKi is 7.23.

What about the pKi (human orexin 2 receptor; [1]) of the same molecule?
Its pKi is 6.01.

How did the pKi (human orexin 1 receptor; read-out: hOX1 Ki) turn out when `O=C(c1ccccc1-c1ccccc1)N1[C@@H]2CC[C@H]1[C@H](Nc1cnc(C(F)(F)F)cn1)C2` [Example 407, [1,1′-biphenyl]-2-yl((1S,2R,4R)-2-((5-(trifluoromethyl)pyrazin-2-yl)amino)-7-azabicyclo[2.2.1]heptan-7-yl)methanone] was run?
Its pKi is 7.77.

And the pKi (rat orexin 1 receptor; read-out: rOX1 Ki)?
The pKi was 7.74.

What about the pKi (human orexin 2 receptor; [1]) of the same molecule?
The pKi was 6.98.

What does the source list for `O=C(c1cccc(F)c1-c1ccccn1)N1[C@@H]2CC[C@H]1[C@H](Nc1cnc(C(F)(F)F)cn1)C2` [Example 408, (3-fluoro-2-(pyridin-2-yl)phenyl)((1S,2R,4R)-2-((5-(trifluoromethyl)pyrazin-2-yl)amino)-7-azabicyclo[2.2.1]heptan-7-yl)methanone]?
pKi (human orexin 1 receptor; read-out: hOX1 Ki): 7.72; pKi (rat orexin 1 receptor; read-out: rOX1 Ki): 7.92; pKi (human orexin 2 receptor; [1]): 6.82

`O=C(c1cc(F)ccc1-c1ncco1)N1[C@@H]2CC[C@H]1[C@H](Nc1cnc(C(F)(F)F)cn1)C2` [Example 410, (5-fluoro-2-(oxazol-2-yl)phenyl)((1S,2R,4R)-2-((5-(trifluoromethyl)pyrazin-2-yl)amino)-7-azabicyclo[2.2.1]heptan-7-yl)methanone] was tested. Which pKi (human orexin 1 receptor; read-out: hOX1 Ki) did it give?
The pKi was 7.05.

And the pKi (rat orexin 1 receptor; read-out: rOX1 Ki)?
The pKi was 7.17.

And the pKi (human orexin 2 receptor; [1])?
Its pKi is 6.00.

`O=C(c1c(F)cccc1-c1ncco1)N1[C@@H]2CC[C@H]1[C@H](Nc1cnc(C(F)(F)F)cn1)C2` [Example 411, (2-fluoro-6-(oxazol-2-yl)phenyl)((1S,2R,4R)-2-((5-(trifluoromethyl)pyrazin-2-yl)amino)-7-azabicyclo[2.2.1]heptan-7-yl)methanone] was tested. Which pKi (human orexin 1 receptor; read-out: hOX1 Ki) did it give?
The pKi was 7.51.

What about the pKi (rat orexin 1 receptor; read-out: rOX1 Ki) of the same molecule?
Its pKi is 7.28.

And the pKi (human orexin 2 receptor; [1])?
Its pKi is 6.21.

`Cc1noc(-c2cc(F)ccc2C(=O)N2[C@@H]3CC[C@H]2[C@H](Nc2cnc(C(F)(F)F)cn2)C3)n1` [Example 412, (4-fluoro-2-(3-methyl-1,2,4-oxadiazol-5-yl)phenyl)((1S,2R,4R)-2-((5-(trifluoromethyl)pyrazin-2-yl)amino)-7-azabicyclo[2.2.1]heptan-7-yl)methanone] was tested. Which pKi (human orexin 1 receptor; [2]) did it give?
The pKi was 6.48.

And the pKi (rat orexin 1 receptor; [3])?
Its pKi is 6.90.

And the pKi (human orexin 2 receptor; [1])?
Its pKi is 5.32.

What does the source list for `O=C(c1ccc(F)cc1-c1ncccn1)N1[C@@H]2CC[C@H]1[C@H](Nc1ncc(C(F)(F)F)cn1)C2` [Example 414, (4-fluoro-2-(pyrimidin-2-yl)phenyl)((1S,2R,4R)-2-((5-(trifluoromethyl)pyrimidin-2-yl)amino)-7-azabicyclo[2.2.1]heptan-7-yl)methanone]?
pKi (human orexin 1 receptor; [2]): 7.09; pKi (rat orexin 1 receptor; [3]): 6.80; pKi (human orexin 2 receptor; [1]): 5.24

`O=C(c1cc(F)ccc1-c1ncccn1)N1[C@@H]2CC[C@H]1[C@H](Nc1ncc(C(F)(F)F)cn1)C2` [Example 415, (5-fluoro-2-(pyrimidin-2-yl)phenyl)((1S,2R,4R)-2-((5-(trifluoromethyl)pyrimidin-2-yl)amino)-7-azabicyclo[2.2.1]heptan-7-yl)methanone] was tested. Which pKi (human orexin 1 receptor; read-out: hOX1 Ki) did it give?
Its pKi is 7.15.

And the pKi (rat orexin 1 receptor; [3])?
The pKi was 6.99.

What about the pKi (human orexin 2 receptor; read-out: hOX2 Ki) of the same molecule?
Its pKi is 5.68.

Which results are given for `O=C(c1c(F)cccc1-c1ncccn1)N1[C@@H]2CC[C@H]1[C@H](Nc1ncc(C(F)(F)F)cn1)C2` [Example 416, (2-fluoro-6-(pyrimidin-2-yl)phenyl)((1S,2R,4R)-2-((5-(trifluoromethyl)pyrimidin-2-yl)amino)-7-azabicyclo[2.2.1]heptan-7-yl)methanone]?
pKi (human orexin 1 receptor; [2]): 7.07; pKi (rat orexin 1 receptor; [3]): 6.86; pKi (human orexin 2 receptor; [1]): 5.68

What does the source list for `O=C(c1ccccc1-c1ncccn1)N1[C@@H]2CC[C@H]1[C@H](Nc1ncc(C(F)(F)F)cn1)C2` [Example 417, (2-(pyrimidin-2-yl)phenyl)((1S,2R,4R)-2-((5-(trifluoromethyl)pyrimidin-2-yl)amino)-7-azabicyclo[2.2.1]heptan-7-yl)methanone]?
pKi (human orexin 1 receptor; read-out: hOX1 Ki): 7.39; pKi (rat orexin 1 receptor; read-out: rOX1 Ki): 7.28; pKi (human orexin 2 receptor; [1]): 5.72

Which results are given for `Cc1cnc(C(=O)N2[C@@H]3CC[C@H]2[C@H](Nc2ncc(C(F)(F)F)cc2F)C3)c(-n2nccn2)c1` [Example 420, ((1S,2R,4R)-2-((3-fluoro-5-(trifluoromethyl)pyridin-2-yl)amino)-7-azabicyclo[2.2.1]heptan-7-yl)(5-methyl-3-(2H-1,2,3-triazol-2-yl)pyridin-2-yl)methanone]?
pKi (human orexin 1 receptor; [2]): 6.94; pKi (rat orexin 1 receptor; [3]): 7.00; pKi (human orexin 2 receptor; [1]): 6.05

What does the source list for `O=C(c1ccccc1-n1nccn1)N1[C@@H]2CC[C@H]1[C@H](Nc1ncc(C(F)(F)F)cc1F)C2` [Example 448, (2-(2H-1,2,3-triazol-2-yl)phenyl)((1S,2R,4R)-2-((3-fluoro-5-(trifluoromethyl)pyridin-2-yl)amino)-7-azabicyclo[2.2.1]heptan-7-yl)methanone]?
pKi (human orexin 1 receptor; [4]): 7.48; pKi (rat orexin 1 receptor; [5]): 7.39; pKi (human orexin 2 receptor; [6]): 6.18

What does the source list for `O=C(c1cccc(F)c1-n1nccn1)N1[C@@H]2CC[C@H]1[C@H](Nc1ncc(C(F)(F)F)cc1F)C2` [Example 449, (3-fluoro-2-(2H-1,2,3-triazol-2-yl)phenyl)((1S,2R,4R)-2-((3-fluoro-5-(trifluoromethyl)pyridin-2-yl)amino)-7-azabicyclo[2.2.1]heptan-7-yl)methanone]?
pKi (human orexin 1 receptor; [4]): 7.39; pKi (rat orexin 1 receptor; [5]): 7.47; pKi (human orexin 2 receptor; [6]): 6.06

`Cc1cccc(C(=O)N2[C@@H]3CC[C@H]2[C@H](Nc2ncc(C(F)(F)F)cc2F)C3)c1-n1nccn1` [Example 450, ((1S,2R,4R)-2-((3-fluoro-5-(trifluoromethyl)pyridin-2-yl)amino)-7-azabicyclo[2.2.1]heptan-7-yl)(3-methyl-2-(2H-1,2,3-triazol-2-yl)phenyl)methanone] was tested. Which pKi (human orexin 1 receptor; [4]) did it give?
The pKi was 7.49.

What about the pKi (rat orexin 1 receptor; [5]) of the same molecule?
Its pKi is 7.85.

What about the pKi (human orexin 2 receptor; [6]) of the same molecule?
Its pKi is 6.47.

What does the source list for `Cc1ccc(-n2nccn2)c(C(=O)N2[C@@H]3CC[C@H]2[C@H](Nc2ncc(C(F)(F)F)cc2F)C3)n1` [Example 451, ((1S,2R,4R)-2-((3-fluoro-5-(trifluoromethyl)pyridin-2-yl)amino)-7-azabicyclo[2.2.1]heptan-7-yl)(6-methyl-3-(2H-1,2,3-triazol-2-yl)pyridin-2-yl)methanone]?
pKi (human orexin 1 receptor; read-out: hOX1 Ki): 7.08; pKi (rat orexin 1 receptor; read-out: rOX1 Ki): 7.09; pKi (human orexin 2 receptor; [6]): 6.29

With `Cc1ccc(C(=O)N2[C@@H]3CC[C@H]2[C@H](Nc2ncc(C(F)(F)F)cc2F)C3)c(-n2nccn2)n1` [Example 452, ((1S,2R,4R)-2-((3-fluoro-5-(trifluoromethyl)pyridin-2-yl)amino)-7-azabicyclo[2.2.1]heptan-7-yl)(6-methyl-2-(2H-1,2,3-triazol-2-yl)pyridin-3-yl)methanone] as the molecule, how does the pKi (human orexin 1 receptor; [4]) read?
The pKi was 6.65.

And the pKi (rat orexin 1 receptor; [5])?
Its pKi is 6.75.

And the pKi (human orexin 2 receptor; [6])?
The pKi was 6.36.
